Read-outs that look alike come from different tables or passages of the source. One block for each molecule: values may come before it. Where a SMILES comes first, the peptide text is derived from it. [ ]: non-standard residue; d: D form. pT = C[C@@H](OP(=O)(O)O)[C@H](N)C(=O)O
Legend:
[1] = molecular target: T1, ΔImpα3 (importin α3 without the IBB domain, residues 64-521) (Homo sapiens, UniProt O00629); test: ITC binding of NLS-NUPR1 peptides / NUPR1 to ΔImpα3; details: for ΔH (binding enthalpy), ΔImpα3: absolute error 0.5 kcal/mol; for −TΔS (entropic contribution), ΔImpα3: calculated from Kd and ΔH, absolute error 0.7 kcal/mol
T1 construct: The His-tagged ΔImpα3 (residues 64-521) was obtained from BL21 (DE3) cells as described; His-tag; made in house; host or cells: Escherichia coli BL21 (DE3)
T1 sequence (O00629 64-521): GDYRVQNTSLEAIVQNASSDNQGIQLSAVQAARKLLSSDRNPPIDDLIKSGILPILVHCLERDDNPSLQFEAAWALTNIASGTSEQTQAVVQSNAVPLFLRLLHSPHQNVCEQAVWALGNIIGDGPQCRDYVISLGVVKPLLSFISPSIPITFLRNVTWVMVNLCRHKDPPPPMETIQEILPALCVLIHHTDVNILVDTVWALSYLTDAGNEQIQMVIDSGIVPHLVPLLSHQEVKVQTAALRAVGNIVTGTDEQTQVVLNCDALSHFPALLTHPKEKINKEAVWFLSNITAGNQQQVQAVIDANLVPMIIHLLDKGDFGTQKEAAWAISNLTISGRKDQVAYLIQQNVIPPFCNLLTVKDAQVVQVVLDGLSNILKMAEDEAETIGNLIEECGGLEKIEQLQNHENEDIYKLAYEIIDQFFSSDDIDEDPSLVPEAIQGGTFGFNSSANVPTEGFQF
Procedure: (§1) The experimental set-up and data processing of ITC experiments has been described previously. Calorimetric titrations, performed in an Auto-iTC200 calorimeter (MicroCal, Malvern-Panalytical, Malvern, UK) consisted of series of 19 2-μL injections, with 150 s time spacing and a 750-rpm stirring speed. Impα3 or ΔImpα3 (at 10–20 μM) was loaded into the calorimetric cell and NLS-NUPR1 peptides in the syringe (150–300 μM); all solutions were prepared in buffer Tris 50 mM, pH 8. […] The binding affinity (association constant) and the binding enthalpy were estimated through a least-squares nonlinear regression data analysis, from which the Gibbs energy and the entropic contribution to the binding were calculated using well-known thermodynamic relationships. Since the binding stoichiometry is constrained by the model, the parameter n provides a fraction of the active or binding competent protein. Experiments for each peptide and importin species were performed, at least, in duplicates.

[2] = molecular target: T2, human importin α3 (Impα3) (Homo sapiens, UniProt O00629); test: ITC binding of NLS-NUPR1 peptides / NUPR1 to Impα3; details: for ΔH (binding enthalpy), Impα3: absolute error 0.5 kcal/mol
T2 construct: although the IBB region maintains its independence within the whole Impα3 in terms of conformation; His-tag (N); made in house; host or cells: Escherichia coli BL21 (DE3)
T2 sequence (O00629 1-521): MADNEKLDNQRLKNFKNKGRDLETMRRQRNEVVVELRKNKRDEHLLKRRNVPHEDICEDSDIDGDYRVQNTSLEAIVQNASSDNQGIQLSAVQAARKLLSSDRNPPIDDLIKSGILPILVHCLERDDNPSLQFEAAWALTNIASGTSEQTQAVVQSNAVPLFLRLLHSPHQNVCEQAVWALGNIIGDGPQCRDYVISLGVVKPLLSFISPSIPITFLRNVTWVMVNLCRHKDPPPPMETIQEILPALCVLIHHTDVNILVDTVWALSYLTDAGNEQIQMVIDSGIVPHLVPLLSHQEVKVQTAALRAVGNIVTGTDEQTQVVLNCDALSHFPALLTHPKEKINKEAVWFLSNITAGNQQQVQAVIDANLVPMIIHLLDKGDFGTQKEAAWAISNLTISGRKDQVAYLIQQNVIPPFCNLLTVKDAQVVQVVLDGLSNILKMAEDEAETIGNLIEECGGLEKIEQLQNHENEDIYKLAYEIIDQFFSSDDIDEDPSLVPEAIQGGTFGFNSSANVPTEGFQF
Procedure: as §1

[3] = Translational diffusion by NMR DOSY (hydrodynamic properties); type: physicochemical; details: for D, translational diffusion coefficient: 283 K, pH 7.2, 50-mM deuterated Tris, 100% D2O, peptide 120 μM; for Rh, hydrodynamic radius from D: from the translational diffusion coefficient of dioxane (Rh = 2.12 Å) added to each sample
Procedure: Concentrations of peptides in all DOSY experiments were 120 μM, and 128 scans, where the gradient strength was varied, were acquired for each curve. Translational self-diffusion measurements were performed with the pulsed gradient spin-echo sequence in the presence of 100% D2O. Experimental details have been described elsewhere. Briefly, the gradient strength was varied in sixteen linear steps between 2% and 95% of the total power of the gradient coil. The gradient strength was previously calibrated by using the value of the translational diffusion coefficient, D, for the residual proton water line in a sample containing 100% D2O in a 5-mm tube [34]. In our experiments for each peptide, the duration of the gradient was 2.25 ms, the time between the two pulse gradients in the pulse sequence was set to 200 ms, and the recovery delay between the bipolar gradients was set to 100 μs. The methyl groups with signals between 1.0 and 0.80 ppm were used for integration. Fitting of the exponential curves obtained from experimental data was carried out with KaleidaGraph (Synergy Software, Version 3.5), as described. A final concentration of 1% of dioxane, which was assumed to have a hydrodynamic radius Rh = 2.12 Å [34], was added to the solutions of each of the peptides to have a comparison for estimating their sizes.

[4] = molecular target: T2, human importin α3 (Impα3); details: ITC, shown in Figure S4 for comparison; previously measured; read-out: Kd (dissociation constant) of intact NUPR1 for Impα3; cited from earlier work
Text: Furthermore, we tried to dissect the affinity of the NLS region of NUPR1 for Impα3 by using a “divide and conquer” approach with the peptides comprising the region. The interaction between full-length NUPR1 and its mutants with Impα3 and ΔImpα3 was the focus of this study, but instead, we emplo ... || In this work, we tried first to find out whether the theoretically predicted NLS region of NUPR1 was capable of binding in isolation to Impα3. Second, we tried to elucidate, for the first time, the molecular bases behind the binding of an NLS region of an IDP to an importin. […] These findings allow us to draw several conclusions. […] However, t ...

[5] = molecular target: T3, truncated importin α3 without the IBB domain (residues 64-521) (human, UniProt O00629 64-521); test: ITC; intact NUPR1 with ΔImpα3; conditions of this titration are not told (Figure S4); details: both partners purified
T3 construct: human importin α3 (KPNA4) without the IBB domain, residues 64-521; also called ΔImpα3; ΔImportin
T3 sequence (looked up): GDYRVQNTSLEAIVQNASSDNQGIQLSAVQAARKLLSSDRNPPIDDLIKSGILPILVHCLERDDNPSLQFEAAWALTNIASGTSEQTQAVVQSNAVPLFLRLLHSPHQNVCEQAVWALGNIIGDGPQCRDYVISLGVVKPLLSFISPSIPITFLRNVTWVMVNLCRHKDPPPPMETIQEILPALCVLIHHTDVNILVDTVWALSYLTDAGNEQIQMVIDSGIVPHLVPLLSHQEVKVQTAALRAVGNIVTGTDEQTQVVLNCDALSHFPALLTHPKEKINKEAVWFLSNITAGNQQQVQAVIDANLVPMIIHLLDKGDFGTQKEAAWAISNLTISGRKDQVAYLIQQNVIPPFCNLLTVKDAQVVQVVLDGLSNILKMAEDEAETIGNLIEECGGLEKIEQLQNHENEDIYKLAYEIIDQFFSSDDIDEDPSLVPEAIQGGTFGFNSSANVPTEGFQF

Molecule: CC(=O)N[C@@H](Cc1ccc(O)cc1)C(=O)N[C@H](C(=O)N[C@@H](CC(N)=O)C(=O)N[C@@H](CCCNC(=N)N)C(=O)N1CCC[C@H]1C(=O)N[C@@H](CO)C(=O)N1CCC[C@H]1C(=O)NCC(=O)NCC(=O)N[C@@H](Cc1c[nH]cn1)C(=O)N[C@@H](CCC(=O)O)C(=O)N[C@@H](CCCNC(=N)N)C(=O)N[C@@H](CCCCN)C(=O)N[C@@H](CC(C)C)C(=O)N[C@H](C(=O)N[C@H](C(=O)N[C@@H](CCCCN)C(=O)N[C@@H](CC(C)C)C(=O)N[C@@H](CCC(N)=O)C(=O)N[C@@H](CC(N)=O)C(=O)N[C@@H](CO)C(=O)N[C@@H](CCC(=O)O)C(N)=O)[C@@H](C)OP(=O)(O)O)C(C)C)[C@@H](C)O [pT68] (Ac-YTNRPSPGGHERKLV[pT]KLQNSE-NH2)
ΔH (binding enthalpy), ΔImpα3 ([1]; ITC, 298 K, Tris 50 mM pH 8): -28.2 kcal/mol
−TΔS (entropic contribution), ΔImpα3 ([1]; ITC, 298 K, Tris 50 mM pH 8): 22.0 kcal/mol
ΔH (binding enthalpy), Impα3 ([2]; ITC, 298 K, Tris 50 mM pH 8): -14.8 kcal/mol
Kd ([2]; ITC, 298 K, Tris 50 mM pH 8, importin 10–20 μM in cell, peptide 150–300 μM in syringe, 1:1 model, at least duplicates, relative error 30%, read-out: Kd (dissociation constant), Impα3): 27000 nM
D, translational diffusion coefficient [3]: 1.89 ± 0.08 cm^2 s^−1 × 10^6
Rh, hydrodynamic radius from D [3]: 11 ± 1 Å

Molecule: CC(=O)N[C@@H](Cc1ccc(O)cc1)C(=O)N[C@H](C(=O)N[C@@H](CC(N)=O)C(=O)N[C@@H](CCCNC(=N)N)C(=O)N1CCC[C@H]1C(=O)N[C@@H](CO)C(=O)N1CCC[C@H]1C(=O)NCC(=O)NCC(=O)N[C@@H](Cc1c[nH]cn1)C(=O)N[C@@H](CCC(=O)O)C(=O)N[C@@H](CCCNC(=N)N)C(=O)N[C@@H](CCCCN)C(=O)N[C@@H](CC(C)C)C(=O)N[C@H](C(=O)N[C@H](C(=O)N[C@@H](CCCCN)C(=O)N[C@@H](CC(C)C)C(=O)N[C@@H](CCC(N)=O)C(=O)N[C@@H](CC(N)=O)C(=O)N[C@@H](CO)C(=O)N[C@@H](CCC(=O)O)C(N)=O)[C@@H](C)O)C(C)C)[C@@H](C)O [wt] (Ac-YTNRPSPGGHERKLVTKLQNSE-NH2)
ΔH (binding enthalpy), ΔImpα3 ([1]; ITC, 298 K, Tris 50 mM pH 8): -3.7 kcal/mol
−TΔS (entropic contribution), ΔImpα3 ([1]; ITC, 298 K, Tris 50 mM pH 8): -4.5 kcal/mol
Experimental binding free energy, ΔImpα3 ([1]; from ITC, Table 2, 298 K): -8.22 kcal/mol
ΔH (binding enthalpy), Impα3 ([2]; ITC, 298 K, Tris 50 mM pH 8): 0.8 kcal/mol
−TΔS (entropic contribution), Impα3 ([2]; ITC, 298 K, Tris 50 mM pH 8, calculated from Kd and ΔH, absolute error 0.7 kcal/mol): -8.7 kcal/mol
Experimental binding free energy, Impα3 ([2]; from ITC, Table 2, 298 K): -7.87 kcal/mol
D, translational diffusion coefficient [3]: 1.85 ± 0.04 cm^2 s^−1 × 10^6
Rh, hydrodynamic radius from D [3]: 11 ± 1 Å

Kd ([1]; ITC, 298 K, Tris 50 mM pH 8, importin 10–20 μM in cell, peptide 150–300 μM in syringe, 1:1 model, at least duplicates, relative error 30%, read-out: Kd (dissociation constant), ΔImpα3): 440 nM
Kd [5]: 400 nM
B1: intact NUPR1 (full-length, 82 residues) (natural protein, UniProt O60356 1-82, looked up)
chain: MATFPPATSAPQQPPGPEDEDSSLDESDLYSLAHSYLGGGGRKGRTKREAAANTNRPSPGGHERKLVTKLQNSERKKRGARR
notes: NUPR1, UniProtKB O60356, 82 residues long (8 kDa), intact protein; also called full-length NUPR1; nuclear protein 1
Kd [4]: 1400 nM
